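Cells were grown in 96-well plates and exposed to each compound for 48 hours at five concentrations; endpoints were interpolated linearly between bracketing concentrations, or set to the highest concentration if not reached. GI50 is the concentration that inhibits growth by half.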 The source made the active and inactive calls. No stated cut-off is given here; in the data, active = GI50 up to about 1.1 µM and inactive = higher.
Columns and labels:
Experiment in all cases: inhibition of tumour cell growth, NCI panel, 48 h
HT-29 = tested on: HT-29
SNB-19 = tested on: SNB-19
SR = tested on: SR
HOP-92 = tested on: HOP-92
NCI-H226 = tested on: NCI-H226
NCI-H460 = tested on: NCI-H460
SF-295 = tested on: SF-295
UACC-62 = tested on: UACC-62
NCI-H23 = tested on: NCI-H23
KM-20L2 = tested on: KM-20L2
SNB-75 = tested on: SNB-75
SF-539 = tested on: SF-539
EKVX = tested on: EKVX
IGROV-1 = tested on: IGROV-1
M14 = tested on: M14
M19-MEL = tested on: M19-MEL
DLD-1 = tested on: DLD-1
OVCAR-4 = tested on: OVCAR-4

Measured: GI50

Cn1nc(-c2ccccc2)c2c(/C=C/c3ccccc3)onc2c1=O
inactive: HT-29 > 100 µM | SNB-19 67.3 µM | SR 95.7 µM | HOP-92 33 µM | NCI-H226 > 100 µM | NCI-H460 > 100 µM | SF-295 38.9 µM | UACC-62 23.8 µM | NCI-H23 > 100 µM | KM-20L2 > 100 µM | SNB-75 27 µM | SF-539 65.8 µM | EKVX 67.1 µM | IGROV-1 > 100 µM | M14 > 100 µM | M19-MEL > 100 µM | DLD-1 78.9 µM

COc1cc2c(cc1OC)C(CC1=C(c3ccccc3)CN3CCc4cc(OC)c(OC)cc4C3C1)NCC2 (stereo not drawn)
inactive: HT-29 10.4 µM | SNB-19 19.6 µM | NCI-H226 18.9 µM | NCI-H460 18.8 µM | SF-295 16.8 µM | UACC-62 20.4 µM | NCI-H23 23.1 µM | KM-20L2 13.4 µM | SNB-75 12.5 µM | OVCAR-4 14 µM | EKVX 21.8 µM | IGROV-1 16.6 µM | M14 21.3 µM | M19-MEL 17 µM | DLD-1 19.1 µM

Cc1ccc(NC(=O)C(=O)C(C#N)c2nc(-c3ccc(-c4ccccc4)cc3)cs2)c(C)c1 (stereo not drawn)
inactive: SNB-19 > 100 µM | SR > 100 µM | NCI-H226 > 100 µM | NCI-H460 > 100 µM | SF-295 > 100 µM | UACC-62 > 100 µM | KM-20L2 > 100 µM | SNB-75 > 100 µM | OVCAR-4 > 100 µM | SF-539 > 100 µM | EKVX > 100 µM | IGROV-1 > 100 µM | M14 > 100 µM | M19-MEL > 100 µM | DLD-1 > 100 µM

CC(C)OP(=O)(OC(C)C)/C(=N/Nc1ccc([N+](=O)[O-])cc1)NCCN/C(=N\Nc1ccc([N+](=O)[O-])cc1)P(=O)(OC(C)C)OC(C)C
inactive: SNB-19 3.35 µM | SR 4.03 µM | HOP-92 3.35 µM | NCI-H226 3.94 µM | NCI-H460 3.71 µM | UACC-62 2.15 µM | NCI-H23 2.31 µM | KM-20L2 4.52 µM | SNB-75 5 µM | OVCAR-4 7.19 µM | SF-539 > 100 µM | EKVX 4.54 µM | IGROV-1 2.31 µM | M14 14.8 µM | M19-MEL 5.85 µM | DLD-1 4.71 µM

Reference: ChEMBL document CHEMBL1201862, “PubChem BioAssay data set” (2004)
